Measured values from patent US20220193081A1 (Ellamed IP & Services PTE. LTD., priority 2019, published 2022).
Like-named read-outs stand apart in the source and are kept apart here. Marks after values point to notes of the source that are not given here.

Legend:
[1] = cited from earlier work
[2] = Maximum dissolution study in 50% aqueous ethanol, HPLC assay (Example 5); assay type: physicochemical; details: added until precipitation occurred, pH 5.5, NaOH
Description: (§1) Before being placed on storage, and at time points 7, 42 days and 2 months, the concentration of sildenafil in the mixtures were assayed using HPLC. The samples were then stored at either −20° C., 2-8° C. or 25° C. for periods of up to 2 months. Periodically, the samples were visually inspected for evidence of crystallization.

[3] = Ionic strength study, visual inspection: sildenafil citrate and sucralose in absolute alcohol mixed with equal volume of NaCl solution or purified water (Example 3); assay type: physicochemical
Description: as §1, with “The mixtures were then either placed on storage or NaOH 1N solution was introduced to reach a predetermined pH values. Before” for “Before”, “7 and” for “7,”, “days,” for “days and 2 months,”, “42 days.” for “2 months.”

[4] = Visual inspection on storage of sildenafil citrate in buffered 60% aqueous ethanol (Example 4); assay type: physicochemical; details: pH 5.5, NaOH
Description: as §1, with “7 and” for “7,”, “days,” for “days and 2 months,”, “42 days.” for “2 months.”

[5] = EMEA CHMP Assessment Report for VIZARSIN
[6] = Jordanian Pharmaceutical Manufacturing Co.

For `CCCc1nn(C)c2c(=O)nc(-c3cc(S(=O)(=O)N4CCN(C)CC4)ccc3OCC)[nH]c12.O=C(O)CC(O)(CC(=O)O)C(=O)O` [sildenafil citrate, 1-[[3-(4,7-Dihydro-1-methyl-7-oxo-3-propyl-1H-pyrazolo[4,3-d]pyrimidin-5-yl)-4-ethoxyphenyl]sulfonyl]-4-methylpiperazine citrate salt], the solubility in acetone [1, 5] is listed as “insoluble”, the solubility in chloroform [1, 5] is listed as “insoluble” and the “solubility in dimethyl sulfoxide (DMSO)” value [1, 5] is listed as “soluble”. For the same compound, the solubility in ethanol [1, 5] was “insoluble”, the solubility in methanol [1, 5] was “soluble” and the solubility in ethanol [1, 6] was ~1000 µg/mL. The “times less soluble in ethanol than in water” value [1, 6] was “about 3.5 times”, the “Day 0 concentration sildenafil” value ([2]; with sucralose (second sample)) was 82.79* mg/ml and the “Day 0 concentration sildenafil” value ([2]; with sucralose (third sample)) was 123.95* mg/ml. For the same compound, the “Day 0 concentration sildenafil” value ([2]; without sucralose (first sample)) was 51.65 mg/mL, the “visual inspection for crystallization” value ([3]; 15 mg/ml, pH 4.39, NaCl diluent 100 mM, initially added to 40 ml of diluent, −20° C.) was “Prec” and the “visual inspection for crystallization” value ([3]; 15 mg/ml, pH 4.45, NaCl diluent 50 mM, −20° C.) was “Prec”. The “visual inspection for crystallization” value ([3]; 15 mg/ml, pH 4.52, NaCl diluent 25 mM, 2-8° C.) was “Prec”, the “visual inspection for crystallization” value ([3]; 15 mg/ml, pH 4.52, NaCl diluent 25 mM, −20° C.) was “Prec” and the “visual inspection for crystallization” value ([3]; 15 mg/ml, pH 4.75, purified water diluent, 2-8° C.) was “Prec”. For the same compound, the “visual inspection for crystallization” value ([3]; 15 mg/ml, pH 4.75, purified water diluent, −20° C.) was “Prec”, the “visual inspection for crystallization” value ([3]; 18 mg/ml, pH 5.5 (NaOH), NaCl diluent 100 mM, −20° C.) was “Prec” and the “visual inspection for crystallization” value ([3]; 21 mg/ml, pH 5.5 (NaOH), NaCl diluent 100 mM, −20° C.) was “Prec”. For the same compound, the “visual inspection for crystallization” value ([4]; 18 mg/ml, with sucralose, 2-8° C.) was “Prec”, the “visual inspection for crystallization” value ([4]; 18 mg/ml, with sucralose, −20° C.) was “Prec” and the “visual inspection for crystallization” value ([4]; 18 mg/ml, without sucralose, 2-8° C.) was “Prec”. For the same compound, the “visual inspection for crystallization” value ([4]; 18 mg/ml, without sucralose, −20° C.) was “Prec”, the “visual inspection for crystallization” value ([4]; 21 mg/ml, without sucralose, 2-8° C.) was “Prec” and the “visual inspection for crystallization” value ([4]; 21 mg/ml, without sucralose, −20° C.) was “Prec”.
